What was measured:
[1] = Therapeutic index, ratio of CC50 for human MT4 cells to EC50 for HIV-1 NL4-3 infected in human MT4 cells; assay type: toxicity, cell-based; conditions: read-out: Ratio CC50/EC50
[2] = Cytotoxicity against human MT4 cells assessed as reduction in cell viability after 5 days by MTT assay; assay type: cell-based
[3] = tested on: Human immunodeficiency virus 1; test: Resistance index, ratio of ID50 for recombinant HIV-1 His-tagged reverse transcriptase p66/p51 K103N mutant to ID50 for recombinant wild type HIV-1 reverse transcriptase His-tagged p66/p51
[4] = tested on: Human immunodeficiency virus type 1 reverse transcriptase (Human immunodeficiency virus 1), Q72547 [Y181I]
[5] = tested on: Human immunodeficiency virus 1; test: Resistance index, ratio of ID50 for recombinant HIV-1 His-tagged reverse transcriptase p66/p51 L100I mutant to ID50 for recombinant wild type HIV-1 reverse transcriptase His-tagged p66/p51
[6] = tested on: Human immunodeficiency virus 1; test: Antiviral activity against wild type HIV 1 NL4-3 infected in human MT4 cells assessed as inhibition of virus-induced cytopathic effect after 5 days by MTT assay; assay type: functional, organism-based; conditions: Human immunodeficiency virus 1, NL4-3, MT4, 120 h
[7] = tested on: Human immunodeficiency virus 1; test: Resistance index, ratio of ID50 for recombinant HIV-1 His-tagged reverse transcriptase p66/p51 Y181I mutant to ID50 for recombinant wild type HIV-1 reverse transcriptase His-tagged p66/p51
[8] = tested on: Human immunodeficiency virus 1; test: Antiviral activity against HIV-1 harboring reverse transcriptase K103N mutant infected in human MT4 cells assessed as inhibition of virus-induced cytopathic effect after 5 days by MTT assay; assay type: functional, organism-based; conditions: Human immunodeficiency virus 1, MT4, 120 h
[9] = tested on: Human immunodeficiency virus type 1 reverse transcriptase (Human immunodeficiency virus 1), Q72547 [L100I]
[10] = tested on: Human immunodeficiency virus 1; test: Resistance index, ratio of EC50 for HIV-1 harboring reverse transcriptase Y188L mutant to EC50 for wild type HIV-1 NL4-3; assay type: functional
[11] = tested on: Human immunodeficiency virus type 1 reverse transcriptase (Human immunodeficiency virus 1), Q72547 [K103N]
Description: Inhibition of recombinant HIV-1 His-tagged reverse transcriptase p66/p51 K103N mutant expressed in Escherichia coli assessed as reduction in [3H]dTTP incorporation using poly(rA)/oligo(dT) as template/primer after 20 mins by scintillation counting analysis

[12] = tested on: Human immunodeficiency virus 1; test: Antiviral activity against HIV 1 harboring reverse transcriptase Y181C mutant infected in human MT4 cells assessed as inhibition of virus-induced cytopathic effect after 5 days by MTT assay; assay type: functional, organism-based; conditions: Human immunodeficiency virus 1, MT4, 120 h
[13] = tested on: Human immunodeficiency virus 1; test: Antiviral activity against HIV-1 harboring reverse transcriptase Y188L mutant infected in human MT4 cells assessed as inhibition of virus-induced cytopathic effect after 5 days by MTT assay; assay type: functional, organism-based; conditions: Human immunodeficiency virus 1, MT4, 120 h
[14] = target: Human immunodeficiency virus type 1 reverse transcriptase (Human immunodeficiency virus 1) (UniProt Q72547)
Description: Inhibition of recombinant wild type HIV-1 His-tagged reverse transcriptase p66/p51 expressed in Escherichia coli assessed as reduction in [3H]dTTP incorporation using poly(rA)/oligo(dT) as template/primer after 20 mins by scintillation counting analysis

[15] = tested on: Human immunodeficiency virus 1; test: Resistance index, ratio of EC50 for HIV-1 harboring reverse transcriptase K103N mutant to EC50 for wild type HIV-1 NL4-3; assay type: functional
[16] = tested on: Human immunodeficiency virus 1; test: Resistance index, ratio of EC50 for HIV-1 harboring reverse transcriptase Y181C mutant to EC50 for wild type HIV-1 NL4-3; assay type: functional

Structure (SMILES)	selectivity ratio [1]	CC50 at 120 h [2] [µM]	Ratio [3]	ID50 [4] [nM]	Ratio [5]	EC50 [6] [nM]	Ratio [7]	EC50 [8] [nM]	ID50 [9] [nM]	Ratio EC50 [10]	ID50 [11] [nM]	EC50 [12] [nM]	EC50 [13] [µM]	ID50 [14] [nM]	Ratio EC50 [15]	Ratio EC50 [16]
Cc1c(C(C)c2c(F)cccc2F)nc(SC(C)C)[nH]c1=O (centres undefined)	> 3000	> 3	–	–	–	–	–	–	–	–	–	–	–	–	–	–
CO[C@H](c1nc(SC(C)C)[nH]c(=O)c1C)c1c(F)cccc1Cl	> 1160	> 40.5	12	5800	160	35	75	380	12300	75	950	1350	3.8	77	–	–
CCC(C)Sc1nc(C(CC)c2c(F)cccc2Cl)c(C)c(=O)[nH]1 (centres undefined)	> 56	> 3	–	–	–	–	–	> 3000	120	–	450	–	–	2	–	–
CCCN(C)c1nc(C(OC)c2c(F)cccc2Cl)c(C)c(=O)[nH]1 (centres undefined)	> 18500	> 74.1	–	1100	36	4	42	12	950	30	288	98	0.12	26	3	24
COC(c1nc(SC(C)C)[nH]c(=O)c1C)c1c(Cl)cccc1Cl (centres undefined)	12900	51.7	158	> 40000	134	4	–	1900	7900	1800	9300	3200	7.2	59	475	800
CCC(c1nc(SC2CCCC2)[nH]c(=O)c1C)c1c(F)cccc1Cl (centres undefined)	> 5	> 3	–	–	–	–	–	> 3000	68	–	340	–	–	4	–	–
CCC(c1nc(SC(C)C)[nH]c(=O)c1C)c1c(F)cccc1Cl (centres undefined)	> 36	> 3	–	–	–	–	–	> 3000	120	–	420	–	–	6	–	–
CCCN(C)c1nc(C(OC)c2c(F)cccc2F)c(C)c(=O)[nH]1 (centres undefined)	> 15600	> 77.8	4	1200	40	5	34	31	1400	26	150	180	0.23	35	–	20
CCCNc1nc(C(OC)c2c(F)cccc2Cl)c(C)c(=O)[nH]1 (centres undefined)	8600	77.4	8	2800	–	9	43	150	1700	555	540	940	5	65	17	104
CCC(C)Sc1nc(C(OC)c2c(Cl)cccc2Cl)c(C)c(=O)[nH]1 (centres undefined)	36400	32.8	247	> 40000	347	0.9	–	770	5200	6444	3700	2800	5.8	15	856	3111
COC(c1nc(SC2CCCC2)[nH]c(=O)c1C)c1c(Cl)cccc1Cl (centres undefined)	3660	29.3	131	> 40000	88	8	–	2900	8400	900	12400	4000	7.2	95	362	500

— ChEMBL document CHEMBL4371047, “Effect of α-Methoxy Substitution on the Anti-HIV Activity of Dihydropyrimidin-4(3 H)-ones” (J Med Chem, 2019)
